Results published in patent publication US7208517B1, “Endothelin antagonists” (Abbott Labortories, priority 1994, dated 2007).

Key:
ETA Receptor = molecular target: T1, ETA Receptor (Rattus norvegicus, UniProt P26684); experiment: [125I]ET-1 binding to membranes from MMQ cells (ETA receptor binding assay, Table 4); details: test compound at 1 μM; 0.1 nM [125I]ET-1, MMQ cell membranes, 4 hours at 25° C.; read-out: % Inhibition of ETA at 1 μM
T1 construct: endogenous in cells; host or cells: MMQ rat pituitary cells (membranes)
T1 sequence (P26684 21-426): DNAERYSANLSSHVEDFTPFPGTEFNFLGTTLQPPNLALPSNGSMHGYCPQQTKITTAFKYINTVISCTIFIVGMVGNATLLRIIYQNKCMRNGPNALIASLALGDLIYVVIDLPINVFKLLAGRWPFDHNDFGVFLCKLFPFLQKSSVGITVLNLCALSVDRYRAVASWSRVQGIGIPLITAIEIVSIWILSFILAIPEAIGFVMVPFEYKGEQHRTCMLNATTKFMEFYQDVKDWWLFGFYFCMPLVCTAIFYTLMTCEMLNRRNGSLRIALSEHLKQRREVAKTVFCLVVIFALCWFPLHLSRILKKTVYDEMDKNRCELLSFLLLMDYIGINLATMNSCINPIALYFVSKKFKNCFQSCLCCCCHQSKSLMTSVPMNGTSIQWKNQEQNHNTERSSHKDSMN

[1] = molecular target: T2, ETB receptors of porcine cerebellar tissues (pET-B) (Sus scrofa, UniProt P35463); experiment: ETA/ETB selectivity: (125I)ET-3 competition binding, ETB assay in porcine cerebellum membranes (pET-B); details: porcine cerebellum membranes; 0.1 nM (125I)ET-3; read-out: pET-B IC50
T2 construct: porcine cerebellar tissues (known to contain ETB receptors); from tissue; host or cells: porcine cerebellum (membranes)
T2 sequence (P35463 27-443): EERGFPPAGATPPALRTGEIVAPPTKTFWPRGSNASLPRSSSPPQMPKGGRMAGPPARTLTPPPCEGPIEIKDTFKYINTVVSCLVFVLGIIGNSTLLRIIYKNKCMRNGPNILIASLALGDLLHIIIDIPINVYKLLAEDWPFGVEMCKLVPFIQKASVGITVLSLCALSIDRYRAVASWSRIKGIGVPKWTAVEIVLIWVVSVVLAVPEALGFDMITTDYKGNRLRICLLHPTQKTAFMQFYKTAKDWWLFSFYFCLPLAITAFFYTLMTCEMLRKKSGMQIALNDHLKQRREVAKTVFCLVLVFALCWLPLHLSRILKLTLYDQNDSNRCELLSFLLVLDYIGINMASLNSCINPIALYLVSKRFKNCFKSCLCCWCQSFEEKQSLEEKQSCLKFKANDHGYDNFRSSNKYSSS

[2] = molecular target: T3, ETA receptor in MMQ cells (rET-A) (Rattus norvegicus, UniProt P26684); experiment: ETA/ETB selectivity: (125I)ET-1 competition binding, ETA assay in MMQ cell membranes (rET-A); details: MMQ cell membranes; 0.1 nM (125I)ET-1; read-out: rET-A IC50
T3 construct: endogenous in cells; host or cells: MMQ rat pituitary cells (membranes)
T3 sequence (P26684 21-426): T1 sequence (P26684 21-426)

human ETA receptor = molecular target: T4, human ETA receptor (Homo sapiens, UniProt P25101); experiment: ETA/ETB selectivity: (125I)ET-1 competition binding, CHO cells transfected with human ETA receptor (hET-A); details: CHO cells transfected with human ETA receptor; 0.1 nM (125I)ET-1; read-out: hET-A IC50
T4 construct: expressed in transfected cells; host or cells: CHO cells, permanently transfected
T4 sequence (P25101 21-427): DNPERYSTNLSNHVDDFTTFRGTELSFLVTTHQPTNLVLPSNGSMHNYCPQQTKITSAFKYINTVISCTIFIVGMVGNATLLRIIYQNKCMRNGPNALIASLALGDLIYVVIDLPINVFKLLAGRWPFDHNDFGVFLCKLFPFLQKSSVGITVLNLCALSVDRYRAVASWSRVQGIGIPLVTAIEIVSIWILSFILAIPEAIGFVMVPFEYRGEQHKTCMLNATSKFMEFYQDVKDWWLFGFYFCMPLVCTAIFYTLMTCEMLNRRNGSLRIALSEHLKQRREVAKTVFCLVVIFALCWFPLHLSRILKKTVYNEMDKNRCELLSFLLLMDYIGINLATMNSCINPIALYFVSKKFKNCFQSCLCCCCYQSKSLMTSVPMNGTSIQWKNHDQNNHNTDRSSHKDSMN
Protocol: The mixture was centrifuged at 1000×g for 10 min. The supernatant was collected and centrifuged at 60,000×g for 60 min. The precipitate was resuspended in 20 mM Tris, pH 7.4 containing protease inhibitor and centrifuged again. The final membrane pellet was resuspended in 20 mM Tris, pH 7.4 containing protease inhibitors and stored at −80° C. until used. Protein content was determined by the Bio-Rad dye-binding protein assay.
Binding assays were performed in 96-well microtiter plates pretreated with 0.1% BSA. […] After incubation, unbound ligands were separated from bound ligands by a vacuum filtration method using glass-fiber filter strips in PHD cell harvesters (Cambridge Technology, Inc., MA), washing the filter strips three times with saline (1 mL). Nonspecific binding was determined in the presence of 1 μM ET-1. IC50 values are calculated using an average of at least two separate determinations.

| SMILES | inhibition at 1 µM (ETA Receptor) [%] | IC50 [1] [nM] | IC50 [2] [nM] | IC50 (human ETA receptor) [nM] |
| --- | --- | --- | --- | --- |
| CCCCN(CCCC)C(=O)CN1CC(c2ccc3c(c2)OCO3)C(C(=O)O)C1CC(C)(C)CCC (centres unmarked) [compound 503] | 97 | 50000 | 1.4 | 0.92 |
| CCCCN(CCCC)C(=O)CN1CC(c2ccc3c(c2)OCO3)C(C(=O)O)C1CCC1OCCO1 (centres unmarked) [compound 504] | 97.1 | > 100000 | 3.1 | 4.6 |
| CCCCN(CCCC)C(=O)CN1CC(c2ccc3c(c2)OCO3)C(C(=O)O)C1CCC1CCCCO1 (centres unmarked) [compound 505] | 95.8 | 60000 | 2 | 5.7 |
| CCCCN(CCCC)C(=O)CN1CC(c2ccc3c(c2)OCO3)C(C(=O)O)C1CC(C)(C)C=C(C)C (centres unmarked) [compound 506] | 99.7 | > 100000 | 3.2 | 3 |
| CCCCN(CCCC)C(=O)CN1CC(c2ccc3c(c2)OCO3)C(C(=O)O)C1CC(C)(C)C1OCCO1 (centres unmarked) [compound 507] | 99.3 | > 100000 | 3 | 1.63 |
| CCCCN(CCCC)C(=O)CN1CC(c2cc(OC)c3c(c2)OCO3)C(C(=O)O)C1CCC1OCCO1 (centres unmarked) [compound 509] | 100 | 30000 | 0.56 | 0.51 |
| CCCCN(CCCC)C(=O)CN1CC(c2ccc3c(c2)OCO3)C(C(=O)O)C1COc1ccccc1OC (centres unmarked) [compound 510] | 100 | 35000 | 0.5 | 1 |
| CCCC(CCC)N(C(=O)CN1CC(c2cc(OC)c3c(c2)OCO3)C(C(=O)O)C1CCC1OCCO1)c1ccc(F)c(C)c1 (centres unmarked) [compound 513] | 98 | 8800 | 0.3 | 0.36 |
| CCCCN(CCCC)C(=O)CN1C[C@H](c2ccc3c(c2)CCO3)[C@@H](C(=O)O)[C@@H]1CC(C)(C)CCC [compound 515] | 99.1 | > 62000 | 1.6 | 6.7 |
| CCCCN(CCCC)C(=O)CN1CC(c2cc(OC)c3c(c2)OCO3)C(C(=O)O)C1CC(C)(C)C1OCCO1 (centres unmarked) [compound 516] | 99.7 | 29000 | 0.71 | 1.8 |
| CCCCN(CCCC)C(=O)CN1CC(c2ccc3c(c2)OCO3)C(C(=O)O)C1CCc1ccccc1OC (centres unmarked) [compound 517] | 94.1 | 30000 | 1 | 0.43 |
| CCCCN(CCCO)C(=O)CN1CC(c2ccc3c(c2)OCO3)C(C(=O)O)C1c1ccc(OC)cc1 (centres unmarked) [compound 523] | 99 | 360 | 0.42 | 0.33 |
| CCCON(CCC)C(=O)CN1CC(c2ccc3c(c2)OCO3)C(C(=O)O)C1c1ccc(OC)cc1 (centres unmarked) [compound 524] | 99.2 | 1700 | 0.79 | 0.82 |
| CCCCN(C(=O)CN1CC(c2ccc3c(c2)OCO3)C(C(=O)O)C1c1ccc(OC)cc1)c1cccnc1 (centres unmarked) [compound 531] | 99.8 | – | 1.2 | 0.71 |
| CCCCN(CCCC)C(=O)CN1C[C@H](c2ccc3c(c2)OCO3)[C@@H](C(=O)O)[C@@H]1CC(C)(C)CCC [compound 537] | 97.2 | 5900 | 0.96 | 0.23 |
